Source: patent EP2608671B1, “COMPOUNDS FOR TREATMENT OF CANCER” (Gtx, Inc., priority 2010, dated 2012)
Like-named read-outs stand apart in the source and are kept apart here.

Columns and labels:
[1] = test system: DU 145
[2] = test system: PC-3; test: cells
Text: (§1) The only compounds which belong to the invention are the ones falling under the scope of formula (XI).
Cells were stained with SRB solution.
Cells. […] Cells between the third and fifth passages were used for experiments.
Cell growth inhibition studies. […] Cells were stained with sulphorhodamine B (SRB) solution.

[3] = test system: A375; test: SRB cell growth inhibition (cytotoxicity) assay; assay type: cell-based, human
[4] = test system: PPC-1
[5] = test system: B16-F1; test: SRB cell growth inhibition (cytotoxicity) assay; assay type: cell-based, mouse
Text: as §1

[6] = test system: LNCaP
[7] = PBS pH 7.4; Figure 18; 90 min
[8] = test system: NCI/ADR-RES; test: SRB growth inhibition, P-gp over-expressing MDR line; assay type: cell-based, human; conditions: for Resistance factor: 5760 min
[9] = test system: melanoma cell lines (A375, WM-164, B16-F1) and prostate cancer cell lines (LNCaP, DU 145, PC-3, PPC-1); test: SRB cytotoxicity, melanoma and prostate cell panel (averages); assay type: cell-based
Text: as §1

[10] = in vivo; conditions: rat, plasma, po, 10 mg/kg
[11] = rat, IV; […] (1h, 2r), 5 mg/kg (5Ha, 5Hc)
[12] = test system: MDA-MB-435/LCC6MDR1; test: SRB growth inhibition, multidrug-resistant melanoma line; assay type: cell-based; conditions: MDA-MB-435/LCC6 MDR1, read-out: IC50 ± SEM (nM) (n=3), MDA-MB-435/LCC6MDR1; multidrug-resistant melanoma cell line
[13] = test system: LNCaP; test: cells; conditions: Homo sapiens, 96 h, read-out: IC50 ± SEM (nM), LNCaP
[14] = test system: MDA-MB-435; test: SRB growth inhibition, sensitive parent melanoma line; assay type: cell-based; conditions: Homo sapiens, MDA-MB-435, read-out: IC50 ± SEM (nM) (n=3), MDA-MB-435; sensitive parent melanoma cell line
[15] = test system: DU 145; test: cells; conditions: Homo sapiens, DU-145, 96 h, read-out: IC50 ± SEM (nM) Du 145
[16] = test system: PPC-1; test: cells; conditions: Homo sapiens, PPC-1, 96 h, read-out: IC50 ± SEM (nM), PPC-1
[17] = test system: WM-164; test: SRB cell growth inhibition (cytotoxicity) assay; assay type: cell-based, human
[18] = test system: PC-3/TxR tumors; conditions: PC-3/TxR xenograft, IV 20mpk, day 1 and 9
[19] = test system: OVCAR-8; test: SRB growth inhibition, MDR model parent line; assay type: cell-based, human; conditions: Table 21, Ovarian, n = 3; read-out: IC50 ± SEM (nM) OVCAR-8
[20] = test system: PC-3 prostate tumor xenograft; test: In vivo antitumor efficacy, PC-3 xenograft; design: species or system mouse; conditions: Prostate (PC-3) xenograft, 21 days
Text: (§2) PC-3 and A375 tumor xenograft studies.
(§3) In vivo antitumor activity [tumor growth inhibition (% T/C), tumor growth delay (T-C value), and tumor cell kill (total log cell kill)].

[21] = test system: A375 human melanoma xenograft; test: In vivo antitumor efficacy, A375 melanoma xenograft; design: species or system mouse; conditions: Melanoma (A375) xenograft; for % T/C: 34 days
Description: DTIC at 60 mg/kg was used as a positive control again.
as §2, §3

[22] = read-out: IC50 ±SEM (nM), DU 145, Table 6
[23] = read-out: IC50 ±SEM (nM), PC-3, Table 6
[24] = Table 6, read-out: IC50 ±SEM (nM), A375
[25] = read-out: IC50 ±SEM (nM), PPC-1, Table 6
[26] = Table 6, read-out: IC50 ±SEM (nM), B16-F1
[27] = read-out: IC50 ±SEM (nM), LNCaP, Table 6
[28] = Homo sapiens, PC-3, 96 h, read-out: IC50 ± SEM (nM), PC-3
[29] = Homo sapiens, A-375, read-out: IC50 ± SEM (nM) (n=3), A375, Table 14A
[30] = Homo sapiens, A-375, A375 melanoma cells, 48 h, SRB, read-out: IC50 ± SEM (nM) A375
[31] = Mus musculus, B16-F1, read-out: IC50 ± SEM (nM) (n=3), B16-F1, Table 14A
[32] = Mus musculus, B16-F1 melanoma cells, 48 h, SRB, read-out: IC50 ± SEM (nM) B16-F1
[33] = read-out: IC50 ± SEM (nM) PC-3, Table 21, Prostate, n = 3
[34] = Table 21, Melanoma, n = 3, read-out: IC50 ± SEM (nM) A375
[35] = Table 21, Melanoma, n = 3, read-out: IC50 ± SEM (nM) B16-F1
[36] = read-out: IC50 ± SEM (nM) LNCaP, Table 21, Prostate, n = 3
[37] = read-out: IC50 ± SEM (nM) Dn-145, Table 21, Prostate, n = 3
[38] = read-out: IC50 ± SEM (nM) PPC-1, Table 21, Prostate, n = 3

Structure (SMILES): COc1cc(C(=O)c2csc(-c3ccc(C)cc3)n2)cc(OC)c1OC [2m]
- IC50 [1, 22]: 6.9 nM
- IC50 [2, 23]: 8.7 nM
- IC50 [3, 24]: 11 nM
- IC50 [4, 25]: 6.2 nM
- IC50 [5, 26]: 21 nM

Structure (SMILES): COc1cc(C(=O)c2csc(-c3cc(F)c(F)c(F)c3)n2)cc(OC)c1OC [2p]
- IC50 [1, 22]: 1900 nM
- IC50 [2, 23]: 2380 nM
- IC50 [3, 24]: 2200 nM
- IC50 [4, 25]: 1080 nM
- IC50 [5, 26]: 16600 nM
- IC50 [6, 27]: > 10000 nM

Structure (SMILES): COc1cc(C(=O)c2csc(-c3ccc(CC(N)=O)cc3)n2)cc(OC)c1OC [2q]
- IC50 [1, 22]: > 10000 nM
- IC50 [2, 23]: > 10000 nM
- IC50 [3, 24]: > 20000 nM
- IC50 [4, 25]: > 10000 nM
- IC50 [5, 26]: > 20000 nM
- IC50 [6, 27]: > 10000 nM

Structure (SMILES): COc1cc(C(=O)c2csc(-c3ccc(CN)cc3)n2)cc(OC)c1OC.Cl [2r, (2-(4-(Aminomethyl)phenyl)thiazol-4-yl)(3,4,5-trimethoxyphenyl)methanone hydrochloride]
- solubility in PBS [7]: over 35 µg/mL
- Resistance factor ([8]; NCI/ADR-RES vs OVCAR-8): 0.4
- IC50 ([9]; Prostate cell, read-out: IC50 range over tested melanoma and prostate cell lines): 13 to 80 nM
- bioavailability [10]: 0.2%
- CL (mL/min/kg), systemic clearance [11]: 22 ± 13 mL/min/kg
- Vss (L/kg), volume of distribution [11]: 0.33 ± 025 L/kg

Structure (SMILES): COc1ccc(-c2nc(C(=O)c3ccc(F)cc3)cn2S(=O)(=O)c2ccccc2)cc1 [11cb, (4-fluorophenyl)(2-(4-methoxyphenyl)-1-(phenylsulfonyl)-1H-imidazol-4-yl)methanone]
- IC50 [12]: 30 nM
- IC50 [2, 28]: 33 ± 2 nM
- IC50 [13]: 31 ± 2 nM
- IC50 [14]: 38 nM
- IC50 [3, 29]: 36 ± 5 nM
- IC50 [3, 30]: 36 ± 5 nM
- IC50 [15]: 52 ± 3 nM
- IC50 [16]: 32 ± 0.7 nM
- IC50 [5, 31]: 71 ± 8 nM
- IC50 [5, 32]: 71 ± 8 nM
- IC50 ([9]; Prostate cell, read-out: IC50 (average over cell lines)): 43 nM

Structure (SMILES): O=C(c1ccc(F)cc1)c1cn(S(=O)(=O)c2ccccc2)c(-c2ccc(Cl)cc2)n1 [11fb, (2-(4-chlorophenyl)-1-(phenylsulfonyl)-1H-imidazol-4-yl)(4-fluorophenyl)methanone]
- IC50 ([17]; Homo sapiens, WM164, read-out: IC50 ± SEM (nM) (n=3), WM-164, Table 14A): 74 ± 8 nM
- IC50 ([17]; Homo sapiens, WM164 melanoma cells, 48 h, SRB, read-out: IC50 ± SEM (nM) WM164): 70 ± 6 nM
- IC50 [12]: 35 nM
- IC50 [2, 28]: 76 ± 2 nM
- IC50 [13]: 48 ± 1 nM
- IC50 [14]: 50 nM
- IC50 [3, 29]: 88 ± 9 nM
- IC50 [3, 30]: 88 ± 9 nM
- IC50 [15]: 64 ± 1 nM
- IC50 [16]: 54 ± 1 nM
- IC50 [5, 31]: 107 ± 12 nM
- IC50 [5, 32]: 107 ± 12 nM

Structure (SMILES): O=C(c1ccc(F)cc1)c1c[nH]c(-c2ccc(O)cc2)n1 [12kb]
- IC50 ([17]; WM164 melanoma cells, 48 h, SRB, read-out: IC50 ± SEM (nM) WM164): > 10000 nM
- IC50 ([1]; read-out: IC50 ± SEM (nM) Du 145, Du 145 prostate cancer cells, 96 h, SRB): > 10000 nM
- IC50 ([2]; read-out: IC50 ± SEM (nM) PC-3, PC-3 prostate cancer cells, 96 h, SRB): > 10000 nM
- IC50 ([4]; read-out: IC50 ± SEM (nM) PPC-1, PPC-1 prostate cancer cells, 96 h, SRB): > 10000 nM
- IC50 ([5]; B16-F1 melanoma cells, 48 h, SRB, read-out: IC50 ± SEM (nM) B16-F1): > 10000 nM
- IC50 ([6]; read-out: IC50 ± SEM (nM) LNCaP, LNCaP prostate cancer cells, 96 h, SRB): 10000 nM
- IC50 ([9]; ABI compounds, Tables 11-13, read-out: IC50 (average over cell lines)): 33000 nM

Structure (SMILES): CC(=O)O[C@@]12CO[C@@H]1C[C@H](O)[C@@]1(C)C(=O)[C@H](O)C3=C(C)[C@@H](OC(=O)[C@H](O)[C@@H](NC(=O)OC(C)(C)C)c4ccccc4)C[C@@](O)([C@@H](OC(=O)c4ccccc4)[C@H]21)C3(C)C [Dooetaxel]
- TGI (%) ([18]; end point day 19): 56%
- Tumor size (mm^3) End ([18]; end point day 19): 999 ± 905 mm^3
- Tumor size (mm^3) Start ([18]; start): 170 ± 86 mm^3

Structure (SMILES): COc1cc(C(=O)c2csc(-c3ccc(F)cc3)n2)cc(OC)c1OC [SMART-F]
- IC50 [19]: 34 ± 3 nM
- IC50 [2, 33]: 13 ± 1 nM
- IC50 [3, 34]: 33 ± 14 nM
- IC50 [5, 35]: 43 ± 21 nM
- IC50 [6, 36]: 6 ± 1 nM
- % T/C ([20]; 5 mg/kg i.p.): 21%
- % T/C ([20]; 15 mg/kg i.p.): 24%
- Median time to reach 600 mm^3. ([21]; 15 mg/kg i.p.): 29 days
- % T/C ([21]; 15 mg/kg i.p.): 28%
- Total log cell kill ([21]; 15 mg/kg i.p., doubling time 4.6 d): 0.7

Structure (SMILES): COc1cc(C(=O)c2csc(-c3ccccc3)n2)cc(OC)c1OC [SMART-H]
- IC50 [19]: 35 ± 2 nM
- IC50 [1, 37]: 71 ± 4 nM
- IC50 [2, 33]: 21 ± 1 nM
- IC50 [3, 34]: 28 ± 5 nM
- IC50 [4, 38]: 43 ± 5 nM
- IC50 [5, 35]: 55 ± 5 nM
- IC50 [6, 36]: 28 ± 4 nM
- % T/C ([20]; 5 mg/kg i.p.): 29%
- % T/C ([20]; 15 mg/kg i.p.): 4%
- Median time to reach 600 mm^3. ([21]; 20 mg/kg i.p.): 28 days
- % T/C ([21]; 20 mg/kg i.p.): 30%

Structure (SMILES): COc1cc(C(=O)c2csc(-c3ccc(O)cc3)n2)cc(OC)c1OC [SMART-OH]
- IC50 [19]: 110 ± 8 nM
- IC50 [1, 37]: 116 ± 14 nM
- IC50 [2, 33]: 87 ± 5 nM
- IC50 [3, 34]: 93 ± 11 nM
- IC50 [4, 38]: 76 ± 2 nM
- IC50 [5, 35]: 113 ± 6 nM
- Resistance factor ([8]; NCI/ADR-RES relative to parent OVCAR-8): 0.4
- IC50 ([8]; Table 21, Ovarian, n = 3, read-out: IC50 ± SEM (nM) NCI/ADR-RES): 45 ± 5 nM
- IC50 [6, 36]: 103 ± 9 nM
- % T/C ([20]; 50 mg/kg i.p.): 34%

Structure (SMILES): COc1cc(C(=O)c2csc(-c3ccccc3)n2)cc(OC)c1OCCN1C(=O)c2ccccc2C1=O [compound 20]
- IC50 [1, 22]: 121 nM
- IC50 [2, 23]: 73 nM
- IC50 [3, 24]: 38 nM
- IC50 [4, 25]: 73 nM
- IC50 [5, 26]: 42 nM
- IC50 [6, 27]: 65 nM
